Patent US6740505B1, “Production of proteins” (SmithKline Beecham Corporation, priority 1998, dated 2004)

Columns and labels:
[1] = tested on: recombinant murine NS0 cells transfected with a IgG1 humanised anti-CD23 antibody; assay: Antibody titre (Human IgG by nephelometric method) in repeated batch NS0 cell culture; type: cell-based; details: 56 day culture
Description: (§1) Five Erlenmeyer flasks were inoculated with recombinant murine NS0 cells transfected with a IgG1 humanised anti-CD23 antibody (produced according to the method of Bebbington et al, as supra) in a cholesterol containing protein free/glutamine free medium at 0.2×10^6 cells/ml. Sodium butyrate (0.5M) in PBS was added to the flasks at the following concentrations: 0 mM; 0.025 mM; 0.05 mM; 0.075 mM and 0.10 mM and were incubated at […] and 100 rpm in a shake incubator for 4 days. Subsequently, the flasks were subcultured every four days to a start count of […], maintaining sodium butyrate concentrations as above in each flask. The flasks were sampled and assayed before each subculture. The culture was continued in this ‘draw-fill’/‘repeated batch’ manner for 56 days, maintaining sodium butyrate concentrations at the concentrations indicated throughout. Viable cells were counted for each sample taken as outlined below. Antibody titre for each sample taken was determined as outlined below.
The quantity of Human IgG was determined by a Nephelometric method (Tanford, C. (1961) Light Scattering. Physical Chemistry of Macromolecules. New York:Wiley, 275-316; Whicher J. T et al (1978), “An evaulation of Hyland laser nephelometer PDQ system for the measurement of immunoglobulins”; Ann.Clin.Biochem. 15, p77-85), whereby the formation of insoluble immune-precipitin of Human IgG with highly specific antibody to Human IgG was measured. The Nephelometer measured the intensity of the light scattered by the insoluble immune-precipitin in reaction solution. The change in intensity of the scattered light signal is proportional to the concentration of Human IgG in tested sample. The quantity of Human IgG in the sample is measured from a standard curve constructed from known concentration of purified Human IgG versus the rate of light scatter signal.

[2] = tested on: recombinant murine NS0 cells transfected with a IgG1 humanised anti-CD23 antibody; assay: Viable cell count (Erythrosin B exclusion, haemocytometer) in repeated batch NS0 cell culture; type: cell-based; details: 0.075 mM butyrate
Description: as §1
Culture was diluted as necessary in culture medium. It was examined microscopically in a haemocytometer (Neubauer counting chamber) using Erythrosin B (Sigma) 0.04% w/v in PBS, pH 7 as an exclusion dye. The number of viable and non-viable cells per milliliter and the percentage viability of the culture was calculated.

CCCC(=O)[O-].[Na+] [Butyrate, sodium butyrate]
antibody titre over control ([1]; 0.075 mM butyrate maintained in medium): marked increase in antibody titre over control
antibody titre over control ([1]; 0.075 mM butyrate maintained in medium, listed as butyrate): marked increase over control
consistency of protein production during the culturing process ([1]; 0.075 mM butyrate): more consistent production
antibody titre over control ([1]; 0.1 mM butyrate maintained in medium): marked increase in antibody titre over control
consistency of protein production during the culturing process ([1]; 0.1 mM butyrate): erratic protein production
decrease in viable cell count compared to control ([2]; by 56 day): narrowed considerably
viable cell count compared to control ([2]; early stages of the culturing process): slight decrease in viable cell count
